The values below come from patent publication US20080280879A1, “SUBSTITUTED HETEROCYCLIC DERIVATIVES AND THEIR PHARMACEUTICAL USE AND COMPOSITIONS” (priority 2007, published 2008).

Converted amounts (≈) assume the structure as drawn. A value given as a limit tells only on which side of the number the result lay.

Holding throughout (assay type): cell-based, Staphylococcus aureus
One assay deals with Staph aureus 1095 MRSA. The assay can be described thus: MIC, microtiter broth dilution (CLSI M7-A7), Assay 1, Table 12 column A, no serum. As to conditions: Assay 1, no serum; for MIC: Staphylococcus aureus, MRSA. Summed up: (§1)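 Broth microdilution in microtiter trays per CLSI M7-A7, interpreted per M100-S16; MIC (μg/ml) is the lowest concentration preventing visible growth. Serum condition used Mueller-Hinton Broth with 50% pooled inactivated human serum. Repeated runs reported as geometric mean.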
(Dilution methods test growth across graded concentrations, often in twofold steps.)

Assay [1] deals with Staph aureus 1146. As to the kind of experiment: MIC, microtiter broth dilution (CLSI M7-A7), Assay 1, Table 12 column B, no serum. As to conditions: for MIC: Staphylococcus aureus, 1146, Staph aureus 1146, Assay 1, no serum; for MIC, column B: Staph aureus 1146, Assay 1, no serum. The method, boiled down:
as §1

Assay [2] concerns Staph aureus 1146. The assay can be described thus: MIC in Mueller-Hinton Broth with 50% pooled inactivated human serum, Assay 1, Table 12. As to conditions: for MIC, column C: Staph aureus 1146, Assay 1, 50% human serum; for MIC: Staphylococcus aureus, 1146, Staph aureus 1146, Assay 1, 50% human serum, read-out: MIC, column C. The method, boiled down: as §1
A further assay deals with Staph aureus 2811. The assay can be described thus: MIC, microtiter broth dilution (CLSI M7-A7), Assay 1, Table 12 column D, no serum. As to conditions: for MIC: Staphylococcus aureus, 2811, Staph aureus 2811, Assay 1, no serum; for MIC, column D: Staph aureus 2811, Assay 1, no serum. The method, boiled down: as §1
In a further assay the test system is Staph aureus 2812. The assay can be described thus: MIC, microtiter broth dilution (CLSI M7-A7), Assay 1, Table 12 column E, no serum. As to conditions: for MIC: Staphylococcus aureus, 2812, Staph aureus 2812, Assay 1, no serum; for MIC, column E: Staph aureus 2812, Assay 1, no serum. The method, boiled down:
as §1

As for `COc1ccc2ncc(F)c(C(O)CC[C@@H]3CCN(C4CC(c5c(F)cccc5F)C4)C[C@@H]3C(=O)O)c2n1` (stereo partly drawn) [Example 182, (3R,4R)-1-[3-(2,6-difluorophenyl)cyclobutyl]-4-[3-(3-fluoro-6-methoxy-1,5-naphthyridin-4-yl)-3-hydroxypropyl]piperidine-3-carboxylic acid], the MIC in the assay on Staph aureus 1095 MRSA, in the assay with Staph aureus 1146 [1], against Staph aureus 2811 and against Staph aureus 2812 was less than 0.0625 µg/mL in each case. Further, in the assay on Staph aureus 1146 [2], the “MIC, column C” value was 1.00 µg/mL (≈ 1.89 µM).

For the compound `COc1ccc2nccc(C(O)CC[C@@H]3CCN(C4CCC(c5cc(F)ccc5F)C4)C[C@@H]3C(=O)O)c2c1` (stereo partly drawn) [Example 183, (3R,4R)-1-[3-(2,5-difluorophenyl)cyclopentyl]-4-[3-hydroxy-3-(6-methoxyquinolin-4-yl)propyl]piperidine-3-carboxylic acid], the MIC – broadly, the lowest concentration that inhibits growth of the organism – against Staph aureus 1095 MRSA turned out to be 2 µg/mL (≈ 3.81 µM); in the assay on Staph aureus 1146 [1], 0.25 µg/mL (≈ 0.477 µM); with Staph aureus 1146 [2], 8 µg/mL (≈ 15.2 µM); in the assay on Staph aureus 2811, 0.25 µg/mL (≈ 0.477 µM); in the assay with Staph aureus 2812, 0.5 µg/mL (≈ 0.953 µM).

Regarding `COc1ccc2ncc(Cl)c(C(O)CCC3(C(=O)O)CCN(C4CC(c5cc(F)ccc5F)C4)C3)c2c1` (stereo not shown) [Example 184, 3-[3-(3-chloro-6-methoxyquinolin-4-yl)-3-hydroxypropyl]-1-[3-(2,5-difluorophenyl)cyclobutyl] pyrrolidine-3-carboxylic acid], the minimum inhibitory concentration (MIC) was 0.25 µg/mL (≈ 0.471 µM) in the assay with Staph aureus 1095 MRSA; less than 0.0625 µg/mL against Staph aureus 1146 [1]; 8 µg/mL (≈ 15.1 µM) with Staph aureus 1146 [2]; less than 0.0625 µg/mL in the assay with Staph aureus 2811; less than 0.0625 µg/mL in the assay on Staph aureus 2812.

Regarding `COc1ccc2nccc(C(O)CC[C@@H]3CCN(C4CCN(c5ccccc5)C4)C[C@@H]3C(=O)O)c2c1` (stereo partly drawn) [Example 185, (3R,4R)-4-[3-hydroxy-3-(6-methoxyquinolin4-yl)propyl]-1-(1-phenylpyrrolidin-3-yl)piperidine-3-carboxylic acid], the MIC was 8 µg/mL (≈ 16.3 µM) against Staph aureus 1095 MRSA; 2 µg/mL (≈ 4.08 µM) with Staph aureus 1146 [1]; greater than 64 µg/mL with Staph aureus 1146 [2]; 8 µg/mL (≈ 16.3 µM) with Staph aureus 2811; 4 µg/mL (≈ 8.17 µM) in the assay with Staph aureus 2812.

Consider `COc1ccc2ncc(Cl)c(C(O)CC[C@@H]3CCN(C4CC(c5cc(F)ccc5F)C4)C[C@@H]3C(=O)O)c2c1` (stereo partly drawn) [Example 186, (3R,4R)-4-[3-(3-chloro-6-methoxyquinolin-4-yl)-3-hydroxypropyl]-1-[3-(2,5-difluorophenyl)cyclobutyl]piperidine-3-carboxylic acid], for which the “MIC, column A” value in the assay on Staph aureus 1095 MRSA was less than 0.0625 µg/mL. Further, the minimal inhibitory concentration (MIC) against Staph aureus 1146 [1] and in the assay on Staph aureus 2811 was less than 0.0625 µg/mL each time. The “MIC, column C” value against Staph aureus 1146 [2] was determined as 2.00 µg/mL (≈ 3.67 µM). Moreover, the “MIC, column E” value against Staph aureus 2812 is less than 0.0625 µg/mL.

Consider `COc1ccc2ncc(Cl)c(C(O)CC[C@@H]3CCN(C4CC(c5ccccc5)C4)C[C@@H]3C(=O)O)c2c1` (stereo partly drawn) [Example 187, (3R,4R)-4-[3-(3-chloro-6-methoxyquinolin-4-yl)-3-hydroxypropyl]-1-(3-phenylcyclobutyl)piperidine-3-carboxylic acid], for which the MIC against Staph aureus 1095 MRSA, in the assay with Staph aureus 1146 [1], against Staph aureus 2811 and against Staph aureus 2812 was less than 0.0625 µg/mL throughout. Moreover, the “MIC, column C” value in the assay with Staph aureus 1146 [2] is 1.00 µg/mL (≈ 1.96 µM).

`COc1ccc2ncc(Cl)c(C(O)CC[C@@H]3CCN(C4CC(c5c(F)cccc5F)C4)C[C@@H]3C(=O)O)c2c1` (stereo partly drawn) [Example 188, (3R,4R)-4-[3-(3-chloro-6-methoxyquinolin-4-yl)-3-hydroxypropyl]-1-[3-(2,6-difluorophenyl)cyclobutyl]piperidine-3-carboxylic acid]: the MIC in the assay on Staph aureus 1095 MRSA, against Staph aureus 1146 [1], against Staph aureus 2811 and with Staph aureus 2812 was less than 0.0625 µg/mL throughout. The “MIC, column C” value with Staph aureus 1146 [2] was 0.500 µg/mL (≈ 0.917 µM).

On to `COc1ccc2ncc(F)c(C(O)CC[C@@H]3CCN(C4CC(c5c(F)cccc5F)C4)C[C@@H]3C(=O)O)c2n1` (stereo partly drawn) [Example 189, (3R,4R)-1-[3-(2,6-difluorophenyl)cyclobutyl]-4-[3-(3-fluoro-6-methoxy-1,5-naphthyridin-4-yl)-3-hydroxypropyl]piperidine-3-carboxylic acid], for which, in the assay on Staph aureus 1095 MRSA, the “MIC, column A” value is less than 0.0625 µg/mL. Moreover, the “MIC, column B” value with Staph aureus 1146 [1] was less than 0.0625 µg/mL. Further, the “MIC, column C” value with Staph aureus 1146 [2] was 0.125 µg/mL (≈ 0.236 µM). The “MIC, column D” value in the assay on Staph aureus 2811 is less than 0.0625 µg/mL. Besides, the “MIC, column E” value with Staph aureus 2812 was less than 0.0625 µg/mL.

Regarding `COc1ccc2ncc(F)c(C(O)CC[C@@H]3CCN(C4CC(c5c(F)cccc5F)C4)C[C@@H]3C(=O)O)c2n1` (stereo partly drawn) [Example 190, (3R,4R)-1-[3-(2,6-difluorophenyl)cyclobutyl]-4-[3-(3-fluoro-6-methoxy-1,5-naphthyridin-4-yl)-3-hydroxypropyl]piperidine-3-carboxylic acid], in the assay with Staph aureus 1095 MRSA, the “MIC, column A” value is less than 0.0625 µg/mL. The “MIC, column B” value in the assay on Staph aureus 1146 [1] is less than 0.0625 µg/mL. For the same compound, in the assay on Staph aureus 1146 [2], the “MIC, column C” value came to 1.00 µg/mL (≈ 1.89 µM). In the assay on Staph aureus 2811, the “MIC, column D” value was less than 0.0625 µg/mL. Besides, in the assay with Staph aureus 2812, the “MIC, column E” value amounted to 0.125 µg/mL (≈ 0.236 µM).

For the compound `COc1ccc2nccc([C@@H](O)CC[C@@H]3CCN(C4CC(c5cc(F)c(F)cc5F)C4)C[C@@H]3C(=O)O)c2c1` (stereo partly drawn) [Example 191, (3R,4R)-4-[(3S)-3-hydroxy-3-(6-methoxyquinolin-4-yl)propyl]-1-[3-(2,4,5-trifluorophenyl)cyclobutyl] piperidine-3-carboxylic acid], the MIC is 0.125 µg/mL (≈ 0.236 µM) against Staph aureus 1095 MRSA; less than 0.0625 µg/mL against Staph aureus 1146 [1]; 1 µg/mL (≈ 1.89 µM) with Staph aureus 1146 [2]; less than 0.0625 µg/mL against Staph aureus 2811; less than 0.0625 µg/mL in the assay on Staph aureus 2812.

On to `COc1ccc2nccc(C(O)CC[C@@H]3CCN(C4CC(Cc5cccc(F)c5)C4)C[C@@H]3C(=O)O)c2c1` (stereo partly drawn) [Example 192, (3R,4R)-1-[3-(3-fluorobenzyl)cyclobutyl]-4-[3-hydroxy-3-(6-methoxyquinolin-4-yl)propyl]piperidine-3-carboxylic acid], for which the MIC in the assay on Staph aureus 1095 MRSA was 4 µg/mL (≈ 7.9 µM); with Staph aureus 1146 [1], 1 µg/mL (≈ 1.97 µM); in the assay on Staph aureus 1146 [2], 32 µg/mL (≈ 63.2 µM); with Staph aureus 2811, 1 µg/mL (≈ 1.97 µM); against Staph aureus 2812, 2 µg/mL (≈ 3.95 µM).

As for `COc1ccc2nccc([C@@H](O)CC[C@@H]3CCN(C4CC(c5cccc(C(F)(F)F)c5F)C4)C[C@@H]3C(=O)O)c2c1` (stereo partly drawn) [Example 193, (3R,4R)-1-{3-[2-fluoro-3-(trifluoromethyl)phenyl]cyclobutyl}-4-[(3S)-3-hydroxy-3-(6-methoxyquinolin-4-yl)propyl]piperidine-3-carboxylic acid], the MIC in the assay with Staph aureus 1095 MRSA came to 0.5 µg/mL (≈ 0.892 µM); in the assay on Staph aureus 1146 [1] it was 0.125 µg/mL (≈ 0.223 µM); with Staph aureus 1146 [2] it was 64 µg/mL (≈ 114 µM); with Staph aureus 2811, 0.125 µg/mL (≈ 0.223 µM); against Staph aureus 2812, 0.125 µg/mL (≈ 0.223 µM).

As to `COc1ccc2nccc([C@@H](O)CC[C@@H]3CCN(C4CC(c5ccc(C(F)(F)F)cc5F)C4)C[C@@H]3C(=O)O)c2c1` (stereo partly drawn) [Example 194, (3R,4R)-1-{3-[2-fluoro-4-(trifluoromethyl)phenyl]cyclobutyl}-4-[(3S)-3-hydroxy-3-(6-methoxyquinolin-4-yl)propyl]piperidine-3-carboxylic acid], the MIC was 4 µg/mL (≈ 7.14 µM) with Staph aureus 1095 MRSA; 2 µg/mL (≈ 3.57 µM) against Staph aureus 1146 [1]; greater than 64 µg/mL in the assay with Staph aureus 1146 [2]; 2 µg/mL (≈ 3.57 µM) against Staph aureus 2811; 2 µg/mL (≈ 3.57 µM) in the assay with Staph aureus 2812.

With `COc1ccc2nccc([C@@H](O)CC[C@@H]3CCN(C4CC(c5c(F)ccc(F)c5F)C4)C[C@@H]3C(=O)O)c2c1` (stereo partly drawn) [Example 195, (3R,4R)-4-[(3S)-3-hydroxy-3-(6-methoxyquinolin-4-yl)propyl]-1-[3-(2,3,6-trifluorophenyl)cyclobutyl] piperidine-3-carboxylic acid], the MIC is less than 0.0625 µg/mL with Staph aureus 1095 MRSA; less than 0.0625 µg/mL in the assay on Staph aureus 1146 [1]; 1 µg/mL (≈ 1.89 µM) in the assay with Staph aureus 1146 [2]; less than 0.0625 µg/mL against Staph aureus 2811; less than 0.0625 µg/mL in the assay with Staph aureus 2812.
